Results taken from patent publication US4996225A, “Tri-phenyl alkane derivatives and their oestrogenic, anti-oestrogenic and progestanic uses” (Farmos Group Ltd., priority 1982, dated 1991).
Entries after “also recorded” stand apart in the source; their conditions may differ.

What was measured:
mouse uterus sarcoma = test: antitumour effect against transplantable mouse uterus sarcoma; assay type: in vivo; settings: 100 mg/kg, two weeks' treatment
Text: The activity of the molecules against other tumours was studied by administering the molecules by stomach tube to animals implanted with transplantable uterus sarcoma (mice) or prostatic adenocarcinoma (rats).
Daily or twice weekly administration schedules were employed. NMRI mice (about 20 g, females) and Fischer 344 rats (about 200 g, males) were used. Estramustine phosphate served as positive control.
(§1) Transplantable rat mammary adenocarcinoma was developed by inoculating pieces of DMBA-induced carcinomas subcutaneously to healthy mature female rats. A tumour which expressed malignant growth was selected for further transplantations. Other transplantable tumours were inoculated subcutaneously as washed cell suspension (10^7 cells/animal).

[1] = test system: estradiol induced weight increase in immature mouse uterus; test: antiestrogenic effect, inhibition of oestrogen-induced uterus weight increase in immature mice; assay type: in vivo
Protocol: (§2) The oestrogen-antiestrogen (progesterone) effect of the new compounds in vivo was determined as follows: (1) The oestrogenic properties were determined by administering the new compounds, suspended in sesame oil, subcutaneously to 21 days old immature mice on three consecutive days. The mice were killed on the fourth day and the uterus was weighed. […] The weight correlates with the oestrogenic effect of the compound tested. […] In this case, the ability of the molecules to inhibit oestrogen-induced uterus weight increase was also investigated.

rat ovarial carcinoma = test: antitumour effect against transplantable rat ovarial carcinoma; assay type: in vivo; settings: 5 mg/kg, ten days' treatment
Text: (§3) The anti-tumour effect was investigated in vivo against DMBA-induced rat mammary adenocarcinomas, transplantable mammary and ovarial adenocarcinoma and transplantable prostatic squamous cell carcinoma by the following methods:
as §1

[2] = test system: DMBA-induced rat mammary adenocarcinomas; test: antitumour effect in vivo against DMBA-induced rat mammary adenocarcinoma; settings: for growth / size of tumour (width×height): 30 mg/kg
Protocol: as §3
Mammary adenocarcinomas were induced by DMBA in 35-40 days old female rats. […] Tumour size and numbers of tumours were evaluated twice a week. Tumour sizes in the control group, treated with solvent, were compared with the test groups.
The size refers to the width×height of the tumour. The growth rate is a difference between sizes compared with that of the first day of the treatment.

immature mouse uterus [3] = test: oestrogenic effect, uterus weight of immature mice; assay type: in vivo
Protocol: as §2

[4] = test system: MCF-7 cell line (human mammary adenocarcinoma); test: anti-tumour effect in vitro, growth of MCF-7 cell line (bioluminescence assay, intracellular ATP); assay type: cell-based; settings: read-out: Antitumour effect against MCF-7 cell line (IC50 = concentration of compound where 50% inhibition of cell growth could be seen)
Protocol: The anti-tumour effect was studied in vitro as follows:
The amount of living cells after 4 h, 24 h and 48 h incubations were determined by bioluminescence assay (intracellular ATP determination).
inhibition of cell growth could be seen.

immature mouse uterus [5] = test: progestanic effect, uterus weight of immature mice (alone or with medroxyprogesterone acetate); assay type: in vivo
Protocol: Medroxy-progesterone acetate, which decreases uterus weight, was used as reference.
The progestanic effects of the compounds were measured as described earlier.

[6] = with medroxyprogesterone 0.06 mg/kg

SMILES: CN(C)CCOc1ccc(/C(=C(/CCCl)c2ccccc2)c2ccccc2)cc1 [Compound 7, 4-chloro-1,2-diphenyl-1-[4-[2-(N,N-dimethylamino)ethoxy]phenyl]-1-butene]
- size of uterus sarcoma smaller than that of control (mouse uterus sarcoma): 30%
- inhibition of estradiol induced effect in mouse uterus ([1]; 0.5 mg/kg): 27%
- anti-estrogenic effect (in words) ([1]; immature mouse uterus): possessed anti-estrogenic effects; also recorded: possessing antiestrogenic and estrogenic properties
- effect with estradiol (in words) ([1]; with estradiol 0.05 mg/kg): anti-
- reduction in the weights of mice uterus, with estradiol ([1]; with estradiol 0.05 mg/kg): 27%
- size of rat ovarial carcinoma smaller compared with control (rat ovarial carcinoma): 20%
- growth ([2]; day 1 of treatment): 0
- size of tumour (width×height) ([2]; day 1 of treatment): 1.5188
- growth ([2]; day 3 of treatment): 0.1551
- size of tumour (width×height) ([2]; day 3 of treatment): 1.6739
- growth ([2]; day 7 of treatment): -0.2118
- size of tumour (width×height) ([2]; day 7 of treatment): 1.3070
- growth ([2]; day 9 of treatment): -0.4714
- size of tumour (width×height) ([2]; day 9 of treatment): 1.0474
- growth ([2]; day 14 of treatment): -0.5392
- size of tumour (width×height) ([2]; day 14 of treatment): 0.1179
- growth ([2]; day 17 of treatment): -0.5752
- size of tumour (width×height) ([2]; day 17 of treatment): 0.0820
- growth ([2]; day 21 of treatment): -0.5851
- size of tumour (width×height) ([2]; day 21 of treatment): 0.0721
- growth ([2]; day 25 of treatment): -0.5682
- size of tumour (width×height) ([2]; day 25 of treatment): 0.0891
- growth ([2]; day 28 of treatment): -0.5640
- size of tumour (width×height) ([2]; day 28 of treatment): 0.09316
- growth ([2]; day 35 of treatment): -0.5379
- size of tumour (width×height) ([2]; day 35 of treatment): 0.1193
- growth of the tumours (in words) ([2]; highest dose used (30 mg/kg)): the growth of the tumours was found to stop
- dose range at which antitumour effect was found ([2]; rat, in vivo): 1.0 to 30 mg/kg
- estrogenic effect: less than that of estradiol 0.05 mg/kg (immature mouse uterus [3]; 5 mg/kg): about 50%
- effect given alone: estrogenic (in words) (immature mouse uterus [3]; given alone): estrogenic
- estrogenic effect (in words) (immature mouse uterus [3]; immature mice, s.c., three days): could be seen only at the higher concentrations investigated; also recorded: possessing antiestrogenic and estrogenic properties
- IC50 [4]: 1 to 5 µM
- effect given alone: progestanic (in words) (immature mouse uterus [5]; given alone): progestanic
- progestanic effect (in words) (immature mouse uterus [5]; immature mouse uterus): found to be progestanic
- interaction with medroxyprogesterone (in words) (immature mouse uterus [5]; with medroxyprogesterone): slight inhibition of medroxyprogesterone at the lowest dose studied
- effect with medroxyprogesterone (in words) (immature mouse uterus [5]; [6]): weak
- reduction in the weights of mice uterus with medroxyprogesterone, compared to control (immature mouse uterus [5]; [6]): 14%
